# What was measured:
# S. aureus = experiment: AATCC 100 antimicrobial test of derivatized fabrics, S. aureus; type: cell-based; conditions: for % Kill at 4 hours / % Kill at 24 hours: dendrimer attached to cotton fabric, S. aureus; for % kill at 4 hrs.: direct functionalization, ~1×10^6 CFU/mL; for % Kill of laundered fabric (4 hrs.): derivatized cotton
# Method: The antimicrobial testing during this effort was performed. […] The mixture is incubated for selected times. The mixture is then diluted with PBS and a bacterial culture (agar plate) is performed. The colony forming units (CFUs) are determined and the results are expressed as kill efficiency (percentage kill relative to the initial concentration).
# K. pneumoniae = experiment: AATCC 100 antimicrobial test of fabrics, K. pneumoniae; type: cell-based; conditions: for AM efficacy against K. Pneumoniae (FIG. 37): derivatized cotton swatches
# Method: (§1) The antimicrobial testing during this effort was performed. The evaluation of the AM efficacy has been performed using a standard method, based on the AATCC 100 protocol.
# (§2) The experimental procedure starts with 1 mL of a bacterial culture (S. aureus representative for Gram positive bacteria or K. pneumoniae representative for Gram negative bacteria) which is inoculated to 2-3 fabric swatches (full absorption). The mixture is incubated for selected times. The mixture is then diluted with PBS and a bacterial culture (agar plate) is performed. The colony forming units (CFUs) are determined and the results are expressed as kill efficiency (percentage kill relative to the initial concentration).
# The silver fabrics are considered to be the state-of the art in the realm of AM textiles. Two silver-based consumer products (cotton fabrics) were selected for evaluation of their AM properties compared to those of QAC-I derivatized cotton. The first material comprised a silver-shirt which contained silver nanoparticles. The second material was a silver-towel which contained a permanent coating of silver ions. Swatches of both products were generated and the antimicrobial efficacy was tested using the AATCC 100 protocol (K. Pneumoniae at 4, 24 and 48 hrs. time points).
# E. Coli = experiment: JIS Z 2801 antimicrobial test of metallic coupons, E. Coli; type: cell-based; conditions: clear anodized aluminum coupon, front side; vs control without dendrimer; 24 hours
# Method: The AM testing was performed using the standardized JIS Z 2801 method against the Gram negative, E. Coli bacteria. A summary of the procedure is presented below:
# The test microorganism is prepared, usually by growth in a liquid culture medium. • The suspension of test microorganism is standardized by dilution in a nutritive broth (this affords microorganisms the opportunity to proliferate during the test). • Control and test surfaces are inoculated with microorganisms, and then the microbial inoculum is covered with a thin, sterile film. Covering the inoculum spreads it, prevents it from evaporating, and ensures close contact with the antimicrobial surface. • Microbial concentrations are determined at “time zero” by elution followed by dilution and plating to agar. • A control is run to verify that the neutralization/elution method effectively neutralizes the antimicrobial agent in the antimicrobial surface being tested. • Inoculated, covered control and antimicrobial test surfaces are allowed to incubate undisturbed in a humid environment for 24 hours, usually at body temperature. • After incubation, microbial concentrations are determined. Reduction of microorganisms relative to the control surface is calculated.
# S. Epidermisis = experiment: Broad spectrum AM testing of derivatized cotton, S. Epidermisis; type: cell-based; conditions: derivatized cotton fabrics
# Method: as §1, §2
# (§3) The QAC-I derivatized cotton fabrics were evaluated against several strains of Gram positive and Gram negative bacteria and one fungus (C. Albicans).
# C. Albicans = experiment: Broad spectrum AM testing of derivatized cotton, C. Albicans; type: cell-based; conditions: derivatized cotton fabrics
# Method: as §1, §2, §3
# [1] = test system: C. Difficile (vegetative); experiment: Additional AM testing of derivatized cotton, C. Difficile vegetative cells; type: cell-based; conditions: derivatized cotton fabrics
# C. Difficile (spores) = experiment: Additional AM testing of derivatized cotton, C. Difficile spores; type: cell-based; conditions: derivatized cotton fabrics
# MRSA = experiment: Additional AM testing of derivatized cotton, MRSA; type: cell-based; conditions: derivatized cotton fabrics
# MS2 = conditions: derivatized cotton fabrics
# From the text: Cotton fabrics derivatized with imidazolium dendrimer were further evaluated for the AM efficacy against other pathogens.
# [2] = test system: skin of New Zealand White rabbits; experiment: Direct Primary Skin Irritation Test - ISO; type: in vivo
# Method: Cotton fabrics derivatized with QAC-I dendrimer was evaluated at Toxikon for skin irritation using a GLP protocol based on “Direct Primary Skin Irritation Test—ISO”. The test article was evaluated for its potential to produce primary skin irritation after a single topical minimum 4 hour application to the skin of New Zealand White rabbits. Test sites were scored for erythema and/or edema.
smiles,measurement,setting,value
CCCCCCCCCCCC[N+](C)(C)CCNC(=O)NCCCNC(=O)CCN(CCCNC(=O)CCN(CCC(=O)NCCCN(CCC(=O)NCCCNC(=O)NCC[N+](C)(C)CCCCCCCCCCCC)CCC(=O)NCCCNC(=O)NCC[N+](C)(C)CCCCCCCCCCCC)CCc1ccc(Nc2nc(Cl)nc(Cl)n2)cc1)CCC(=O)NCCCNC(=O)NCC[N+](C)(C)CCCCCCCCCCCC.[Cl-].[Cl-].[Cl-].[Cl-] [QAC-4],% Kill at 4 hours,S. aureus,>99%
same,% Kill at 24 hours,S. aureus,62%
same,AM efficacy against K. Pneumoniae (FIG. 37),K. pneumoniae,very high efficacy
CCCCCCCCCCn1cc[n+](CCNC(=O)NCCCNC(=O)CCN(CCCNC(=O)CCN(CCC(=O)NCCCN(CCC(=O)NCCCNC(=O)NCC[n+]2ccn(CCCCCCCCCC)c2C)CCC(=O)NCCCNC(=O)NCC[n+]2ccn(CCCCCCCCCC)c2C)CCc2ccc(NC(=O)CP(=O)(O)O)cc2)CCC(=O)NCCCNC(=O)NCC[n+]2ccn(CCCCCCCCCC)c2C)c1C.[Cl-].[Cl-].[Cl-].[Cl-] [AM compound (1)],log reduction of the inoculum,E. Coli,> 6 log
same,reduction of the inoculum (%),E. Coli,> 99.9999%
CCCCCCCCCCn1cc[n+](CCNC(=O)NCCCNC(=O)CCN(CCCNC(=O)CCN(CCC(=O)NCCCN(CCC(=O)NCCCNC(=O)NCC[n+]2ccn(CCCCCCCCCC)c2C)CCC(=O)NCCCNC(=O)NCC[n+]2ccn(CCCCCCCCCC)c2C)CCc2ccc(Nc3nc(Cl)nc(Cl)n3)cc2)CCC(=O)NCCCNC(=O)NCC[n+]2ccn(CCCCCCCCCC)c2C)c1C.[Cl-].[Cl-].[Cl-].[Cl-] [QAC-I],% Kill at 4 hours,S. aureus,>99%
same,% Kill at 24 hours,S. aureus,>99%
same,% kill at 4 hrs.,S. aureus; derivatized NYCO fabric,> 99%
same,AM Efficacy (max.),"S. aureus; derivatized cotton fabrics, S. Aureus",>99.999%
same,% Kill of laundered fabric (4 hrs.),"S. aureus; reverse protocol, laundering detergent None, S. Aureus, % kill relative to final amount of bacteria",>99.99%
same,% Kill of laundered fabric (4 hrs.),"S. aureus; 1 accelerated cycle 45 minutes at 49° C., Tide 0.23% w/v, S. Aureus",24%
same,% Kill of laundered fabric (4 hrs.),"S. aureus; 1 accelerated cycle 45 minutes at 49° C., Tween-20 0.23% w/v, S. Aureus",>99.99%
same,% kill at 4 hrs.,S. aureus; derivatized polyester fabric,> 99%
same,AM Efficacy (max.),"K. pneumoniae; derivatized cotton fabrics, K. Pneumoniae",>99.99%
same,AM efficacy against K. Pneumoniae (FIG. 37),K. pneumoniae,very high efficacy
same,AM Efficacy (max.),S. Epidermisis,>99.99%
same,AM Efficacy (max.),C. Albicans,>99.99%
same,% Reduction,[1],99.20%
same,% Reduction,C. Difficile (spores),99.82%
same,% Reduction,MRSA,99.80%
same,% Reduction,MS2,99.95%
same,Skin irritation classification,[2]; criteria of the protocol,negligible irritant
same,Edema score,"[2]; test sites, 24 Hours, Site 1",0/0
same,Erythema score,"[2]; test sites, 24 Hours, Site 1",0/0
same,Edema score,"[2]; test sites, 24 Hours, Site 2",0/0
same,Erythema score,"[2]; test sites, 24 Hours, Site 2",0/0
same,Edema score,"[2]; test sites, 48 Hours, Site 1",0/0
same,Erythema score,"[2]; test sites, 48 Hours, Site 1",0/0
same,Edema score,"[2]; test sites, 48 Hours, Site 2",0/0
same,Erythema score,"[2]; test sites, 48 Hours, Site 2",0/0
same,Edema score,"[2]; test sites, 60 Minutes, Site 1",0/0
same,Erythema score,"[2]; test sites, 60 Minutes, Site 1",0/0
same,Edema score,"[2]; test sites, 60 Minutes, Site 2",0/0
same,Erythema score,"[2]; test sites, 60 Minutes, Site 2",0/0
same,Edema score,"[2]; test sites, 72 Hours, Site 1",0/0
same,Erythema score,"[2]; test sites, 72 Hours, Site 1",0/0
same,Edema score,"[2]; test sites, 72 Hours, Site 2",0/0
same,Erythema score,"[2]; test sites, 72 Hours, Site 2",0/0
same,Total (Erythema + Edema Scores)/(2 Test Sites × 3 Observation Points),"[2]; test sites, per animal, 60 minute scores not included",0.0
CCCCCCCCCCCC[N+](C)(CCCCCCCCCCCC)CCNC(=O)NCCCNC(=O)CCN(CCCNC(=O)CCN(CCC(=O)NCCCN(CCC(=O)NCCCNC(=O)NCC[N+](C)(CCCCCCCCCCCC)CCCCCCCCCCCC)CCC(=O)NCCCNC(=O)NCC[N+](C)(CCCCCCCCCCCC)CCCCCCCCCCCC)CCc1ccc(Nc2nc(Cl)nc(Cl)n2)cc1)CCC(=O)NCCCNC(=O)NCC[N+](C)(CCCCCCCCCCCC)CCCCCCCCCCCC.[Cl-].[Cl-].[Cl-].[Cl-] [QAC-D],% Kill at 4 hours,S. aureus,−38%
CCCCCCCCCCCCCCCCCC[N+](C)(C)CCNC(=O)NCCCNC(=O)CCN(CCCNC(=O)CCN(CCC(=O)NCCCN(CCC(=O)NCCCNC(=O)NCC[N+](C)(C)CCCCCCCCCCCCCCCCCC)CCC(=O)NCCCNC(=O)NCC[N+](C)(C)CCCCCCCCCCCCCCCCCC)CCc1ccc(Nc2nc(Cl)nc(Cl)n2)cc1)CCC(=O)NCCCNC(=O)NCC[N+](C)(C)CCCCCCCCCCCCCCCCCC.[Cl-].[Cl-].[Cl-].[Cl-] [QAC-C18],% Kill at 4 hours,S. aureus,78%
same,% Kill at 24 hours,S. aureus,11%
